Experiments:
[1] = Max solubility of chemicals for establishing the GARD input concentration; conditions: reference compounds used during assay development (Table 1)
CD86 = CD86 expression of MUTZ-3 cells following chemical stimulation (flow cytometry); type: cell-based, human; conditions: MUTZ-3, 24 h stimulation, compared with vehicle/unstimulated cells, student's t-test p<0.05
Description: CD86 expression of MUTZ-3 cells following chemical stimulations. […] Statistical significance was determined by student's t-test, comparing each stimulation with its corresponding vehicle, with p<0.05 indicated by *.
Maintenance of cells, chemical stimulation of MUTZ-3 and all subsequent isolation of mRNA and preparation of cDNA were performed as previously described [41,42]. In short, a phenotypic control of MUTZ-3 was performed using flow cytometry prior to chemical stimulation to ensure cells were in an immature state. The following FITC-conjugated mouse monoclonal antibodies (mAbs) were used: CD1a (DakoCytomation, Glostrup, Denmark), CD34, CD86, HLA-DR, IgG1 (BD Biosciences, Franklin Lakes, N.J.). The following PE-conjugated mouse monoclonal antibodies were used: CD14 (DakoCytomation), CD54, CD80, IgG1 (BD Biosciences). Cell viability was determined using Propidium Iodide (BD Biosciences) staining. Samples were run on FACSCanto II instrument. Data was acquired using FACS Diva software (BD Biosciences) and analyzed using FCS Express V4 (De Novo Software, Los Angeles, Calif.). Gating was performed to exclude cell debris and non-viable cells based on forward- and side-scattering properties and quadrants established using isotype-controls. During chemical exposure, cells were seeded at 200.000 cells/ml in 24-well plates and exposed to chemical compound at the GARD input concentration. Stimulated cells were harvested after 24 h incubation at 37° C., 5% CO2 and RNA was isolated with TRIzol® reagent (Life Technologies, Carlsbad, Calif.) using standardized protocols provided by the manufacturer. In parallel, a control of the maturity state of the cells was performed by flow cytometric analysis of CD86.
Prior to chemical challenge, cells were quality controlled by measuring the cellular expression of common myeloid and dendritic cell markers using flow cytometry. These markers included CD1a, CD14, CD34, CD54, CD80, CD86 and HLA-DR.

[2] = occupational asthma and allergic contact dermatitis, ref. [64]; cited from earlier work

[Cl][Pt-2]([Cl])([Cl])([Cl])([Cl])[Cl].[NH4+].[NH4+] [Ammonium hexachloroplatinate]
Max solubility [1]: 35 µM
Chemically induced up-regulation of CD86 (CD86): statistically significant

O=c1n(CC2CO2)c(=O)n(CC2CO2)c(=O)n1CC1CO1 (stereo not drawn) [triglycidylisocyanurate]
Sensitization in humans (OA, ACD) [2]: cause both OA and ACD

Source: patent publication US20170285010A1, “Analytical Methods and Arrays for Use in the Same” (SENZAGEN AB, priority 2014, published 2017)
